Experimental findings from PubChem BioAssay AID2743 (NMMLSC, 2010) are described below.

Calls of active or inactive are those of the source.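 The calls were made as follows: active = fitted half-maximal concentration for change in GFP expression of 33 µM or less; inactive = the rest.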

A short description of this experiment: concentration-dependent AGP1-GFP change, TOR pathway – cell-based, flow cytometry, S. cerevisiae, MLPCN hits, dose response (AID 2743). The following applies: S. cerevisiae AGP1-GFP strain, flow cytometry GFP, 3 h; at 33 µM (top of the series). In general terms: In flow cytometry, cells or beads pass a laser one at a time.
As for `COc1ccc(C2=CC(=O)N(Nc3ccccc3)C2=O)cc1`, the GFP fluorescence (kMESF) was 39.9 kMESF (inactive).
Consider `N#Cc1c2ccc([N+](=O)[O-])cc2[n+]([O-])n1-c1ccccc1`, for which the GFP fluorescence (kMESF) is 27.6 kMESF (inactive).
The figure for `CCc1sc(C(=O)Nc2nc(-c3ccccn3)cs2)cc1C` is 27.9 kMESF (inactive).
The figure for `CCOc1ccc(N2C(=O)/C(=C\c3cccs3)C(=O)NC2=S)cc1` is 27.9 kMESF (inactive); for `Cc1ccc(N/N=C(\C#N)C(N)=S)c(C)c1` it is 38 kMESF (inactive); for `C/C(=N\Nc1ncnc2sc(C)c(C)c12)c1ccccn1` it is 26.5 kMESF (inactive).
The figure for `CC1(C)C[C@H]2C=C(C=O)[C@]3(C=O)C[C@]3(C)[C@H]2C1` is 36.7 kMESF (inactive); for `CC1(c2ccccc2)ON(c2ccccc2C(F)(F)F)C1=O` (stereo not drawn) it is 29.4 kMESF (inactive); for `O=C1C(Cl)=C(Nc2ccccc2O)C(=O)N1c1ccccc1` it is 38.4 kMESF (inactive).
With `COc1ccc(N2C(=O)C(Cl)=C(NCc3ccccc3)C2=O)cc1`, the GFP fluorescence (kMESF) is 40.6 kMESF (inactive).
For `CCCc1cc(NCc2ccccn2)n2nc(C)c(-c3ccccc3)c2n1` the value was 40.4 kMESF (inactive).
Turning to `N/C(Cc1ccc(Cl)c(Cl)c1)=N\OC(=O)c1cccs1`, the GFP fluorescence (kMESF) was 29.8 kMESF (inactive).
Take `Cc1ccc(/C=C2\C(=O)NC(=S)N(c3ccc(F)cc3)C2=O)s1`: the GFP fluorescence (kMESF) was 31.9 kMESF (inactive).
With `Cc1nn(C)c(C)c1N1C(=O)c2cccc3c(Br)ccc(c23)C1=O`, the GFP fluorescence (kMESF) is 40.8 kMESF (inactive).
Take `Cc1ccc(S(=O)(=O)Cc2cc(F)c([N+](=O)[O-])cc2[N+](=O)[O-])cc1`: the GFP fluorescence (kMESF) is 37 kMESF (inactive).
Turning to `Cc1cccc(/C=C/C(=O)c2ccc([N+](=O)[O-])o2)c1`, the GFP fluorescence (kMESF) is 19.2 kMESF (inactive).
Take `CCc1nc2ccccc2c(=O)n1NC(=O)c1c(O)c2ccccc2n(CC)c1=O`: the GFP fluorescence (kMESF) was 18.7 kMESF (inactive).
For `Oc1ccc(COCc2ccccc2)c2cccnc12` the value was 36.3 kMESF (inactive); for `Oc1c(C(Nc2nc3ccccc3s2)c2ccco2)ccc2cccnc12` (stereo not drawn), 39.7 kMESF (inactive).
For `O=C(C#Cc1ccccc1)c1ccco1` the value was 29.7 kMESF (inactive); for `CC(=O)N(\C=C/C=C/C=C1\Sc2ccccc2C1=O)c1ccccc1`, 38.7 kMESF (inactive); for `C=CCN1C(=O)/C(=C/c2ccc(-c3ccc(F)cc3)o2)SC1=S`, 35.3 kMESF (inactive).
With `Cc1ccc(C(CC(=O)O)NC(=O)c2ccc(S(=O)(=O)N3CC(C)OC(C)C3)cc2)cc1` (stereo not drawn), the GFP fluorescence (kMESF) is 36.9 kMESF (inactive).
The figure for `O=[N+]([O-])c1cc(CN2CCN(c3ccccc3)CC2)c(O)c2ncccc12` is 27 kMESF (inactive).
The figure for `COc1ccc([N+](=O)[O-])c(S(=O)(=O)c2ccc(Cl)cc2)n1` is 37.1 kMESF (inactive); for `Cc1ccc(C(=O)NNC(=S)NC(=O)c2ccco2)cc1` it is 44.1 kMESF (inactive); for `CCSc1nnc(NC(=O)c2ccccn2)s1` it is 39.6 kMESF (inactive).
Turning to `Cc1ccc(/C=c2\sc3nc(-c4cccs4)nn3c2=O)o1`, the GFP fluorescence (kMESF) is 42.1 kMESF (inactive).
On to `O=C1c2ccccc2C(=O)N1OS(=O)(=O)c1ccc(F)cc1`, for which the GFP fluorescence (kMESF) is 27 kMESF (inactive).
As to `CCOC(=O)c1cc(-c2ccc(/C=C3/C(=O)NC(=O)C(C#N)=C3C)o2)ccc1Cl`, the GFP fluorescence (kMESF) was 28.2 kMESF (inactive).
On to `COc1cc(C=C2C(=O)c3ccccc3C2=O)cc(OC)c1`, for which the GFP fluorescence (kMESF) was 38 kMESF (inactive).
For the compound `CCCCS(=O)(=O)/C=C\C=C/S(=O)(=O)CCCC`, the GFP fluorescence (kMESF) was 26.3 kMESF (inactive).
For `NC(=O)COc1ccc(C(=O)/C=C2/C(=O)Nc3ccccc32)cc1` the value was 46.2 kMESF (inactive); for `O=C(c1ccc([N+](=O)[O-])o1)N1CCN(c2nc3c(F)cc(F)cc3s2)CC1`, 30.3 kMESF (inactive).
For `O=c1oc2ccccc2c(O)c1[C@H]1c2ccc(O)cc2Oc2c1c(=O)oc1ccccc21` the value was 36.3 kMESF (inactive); for `Cc1c(C)c2ccc(Oc3ccc([N+](=O)[O-])cc3C(F)(F)F)c(C)c2oc1=O`, 33.9 kMESF (inactive); for `Cc1ccc(C(=O)O/N=C(\N)Cc2cccs2)c(Cl)c1`, 22.9 kMESF (inactive).
For the compound `O=C1C=C(Nc2ccc(Cl)cc2)C(=O)N1c1ccc(Cl)cc1`, the GFP fluorescence (kMESF) is 37.8 kMESF (inactive).
The figure for `Cc1cccnc1Nc1nc(-c2ccccn2)cs1` is 31 kMESF (inactive).
For `O=C1c2ccccc2C(=O)C2OC12` (stereo not drawn) the value was 33.7 kMESF (inactive); for `CC(=O)SC(C[N+](=O)[O-])c1cn(C(C)=O)c2ccccc12` (stereo not drawn), 36.3 kMESF (inactive).
The figure for `O=C(Nc1nnc(-c2ccc(Cl)cc2)o1)c1ccccc1Br` is 28.4 kMESF (inactive).
Regarding `O=C(/C=C/c1ccc(Cl)c([N+](=O)[O-])c1)c1cccnc1`, the GFP fluorescence (kMESF) is 35.8 kMESF (inactive).
The figure for `Cc1c(N2C(=O)/C(=C\c3ccccc3O)SC2=S)c(=O)n(-c2ccccc2)n1C` is 44.8 kMESF (inactive); for `O=C1NC(=S)NC(=O)C1=Cc1ccc2c(c1)CCN2CCCCl` it is 35 kMESF (inactive); for `O=C1C=C(c2ccc(Cl)cc2)C(=O)N1Nc1ccccc1` it is 24.4 kMESF (inactive).
For `CC(C)Oc1ccc(C(=O)/C=C2/C(=O)Nc3ccccc32)cc1` the value was 46.3 kMESF (inactive); for `CC(C)C[C@]1(c2ccccc2)ON(c2ccccc2C(F)(F)F)C1=O`, 34.6 kMESF (inactive).
As to `O=c1oc(/C=C/c2ccc([N+](=O)[O-])s2)nc2ccccc12`, the GFP fluorescence (kMESF) is 37.9 kMESF (inactive).
The figure for `CN(C)c1ccc(N=Cc2nc(-c3ccccc3)oc2OC(=O)c2ccccc2)cc1` is 43 kMESF (inactive).
For `O=C(OCn1ncc(Br)c(Br)c1=O)c1ccccc1Cl` the value was 46 kMESF (inactive).
Turning to `COc1cccc2cc(-c3nc4ccccc4o3)c(=O)oc12`, the GFP fluorescence (kMESF) was 20.9 kMESF (inactive).
The figure for `O=C1ON=C(c2ccc(Cl)cc2)/C1=C/c1ccc(O)cc1` is 23.3 kMESF (inactive); for `Clc1cccc(CN2COc3c(cc(Cl)c4cccnc34)C2)c1` it is 35.6 kMESF (inactive); for `COc1cccc(/C=N/Nc2ncc(C(F)(F)F)cc2Cl)c1O` it is 34.3 kMESF (inactive).
The figure for `CN(c1ccccc1)c1ccc(/C=c2\s/c(=C(/C#N)C(=O)C(C)(C)C)n(Cc3ccco3)c2=O)cc1` is 38 kMESF (inactive); for `O=C(Nc1ccc(Cl)cc1)ON=C1CCCC1` it is 28 kMESF (inactive).
On to `Cc1nc2ccc(NC(=O)c3oc4ccc(F)cc4c3C)cc2s1`, for which the GFP fluorescence (kMESF) is 35.7 kMESF (inactive).
